Converted amounts (≈) assume the structure as drawn. Like-named read-outs stand apart in the source and are kept apart here.
How the values were obtained:
[1] = tested on: Clostridium difficile ATCC 43255; experiment: Susceptibility of Clostridium difficile, agar dilution MIC; assay type: cell-based; conditions: Clostridioides difficile, ATCC43255, anaerobic
Protocol: The antibacterial activity of the compounds of the present invention against Clostridium difficile clinical isolates was tested by the agar dilution method. The assay was carried out according to the CLSI guidelines for managing the procedures of susceptibility tests “M11-A8, Methods for Antimicrobial Susceptibility Testing of Anaerobic Bacteria; Approved Standard-Eighth Edition. CLSI document (2012)”.
The test strains were spread on supplemented Brucella agar (SBA) plates and grown at 36° C. under anaerobic condition for 42 to 48 hours. The test compound dilutions were prepared with Brucella broth and SBA plates containing dilution of test compound were prepared. As an anaerobic growth control, plates not containing the test compound were also prepared. Colonies grown on plates were suspended with Brucella broth to adjust the turbidity to 0.5 McFarland using a densitometer. Suspension (1-2 μL) of the test strains was inoculated onto each agar surface by using a bacterial suspension inoculation apparatus. After anaerobic incubation at 36° C. for 42 to 48 hours, absence and presence of growth of each strain were examined with unaided eye. The MIC was determined at which a marked reduction occurs in the appearance of growth on the test plate as compared to that of growth on the anaerobic control plates.

S. aureus ATCC 29213 = experiment: Susceptibility of bacteria, broth microdilution MIC; assay type: cell-based; conditions: Staphylococcus aureus, ATCC29213
Protocol: The antibacterial activity of the compounds of the present invention was tested by the broth microdilution method. The assay was carried out according to the CLSI guidelines for managing the procedures of susceptibility tests: “M7-A7 Methods for Dilution Antimicrobial Susceptibility Tests for Bacteria That Grow Aerobically; Approved Standard-Seventh Edition (2006)”. Test strains were grown on appropriate agar plates overnight. A broth containing the test compound diluted serially 2-fold and diluents were dispensed at 100 μL to each well of a 96-well microplate. As a growth control, a well with a broth not containing the test compound was also prepared. Colonies grown on the plates were suspended in saline, adjusted to 0.5 McFarland (OD625=0.08 to 0.10) using a colorimeter, and then diluted 10-fold with saline. The bacterial suspension was inoculated at 4 μL into each well of the microplate using a bacterial suspension inoculation apparatus. The inoculated microplate was incubated at 35° C. overnight (about 20 hours). The growth condition was observed by the naked eye, and the minimum concentration to inhibit bacterial proliferation was defined as a minimum inhibitory concentration (MIC). The MICs of compounds disclosed herein for E. faecium, Streptococcus pneumoniae and Haemophilus influenzae are shown in Table 2, while for S. aureus in Table 3.

P. acnes IHMA 103740 = experiment: Susceptibility of P. acnes, agar dilution MIC; assay type: cell-based; conditions: Cutibacterium acnes, IHMA103740, anaerobic
Protocol: (§1) The antibacterial activity of the compounds of the present invention against P. acnes clinical isolates was tested by the agar dilution method. The assay was carried out according to the CLSI guidelines document (Clinical and Laboratory Standards Institute, 2012 & 2016). The test strains were spread on supplemented Brucella agar (SBA) plates and grown for 42 to 48 hours at 36° C. under anaerobic condition. The test compound dilutions were prepared with Brucella broth and SBA plates containing dilution of test compound were prepared. As an anaerobic growth control and to check the aerobic contamination, plates not containing the test compound were also prepared. Colonies grown on plates were suspended with Brucella broth to adjust the turbidity to 0.5 McFarland using a densitometer. Suspension (1-2 μL) of the test strains was inoculated onto each agar surface by using a bacterial suspension inoculation apparatus (multipoint inoculator). After anaerobic incubation for 42 to 48 hours at 36° C., absence and presence of growth of each strain on growth control plates and test compounds plate were examined with unaided eye. The MIC was determined at which a marked reduction occurs in the appearance of growth on the test plate as compared to that of growth on the anaerobic control plates.

P. acnes IHMA 775486 = experiment: Susceptibility of P. acnes, agar dilution MIC; assay type: cell-based; conditions: Cutibacterium acnes, IHMA775486, anaerobic
Protocol: as §1

P. acnes ATCC 6523 = experiment: Susceptibility of P. acnes, agar dilution MIC; assay type: cell-based; conditions: Cutibacterium acnes, ATCC6523, anaerobic
Protocol: as §1

P. acnes ATCC 6921 = experiment: Susceptibility of P. acnes, agar dilution MIC; assay type: cell-based; conditions: Cutibacterium acnes, ATCC6921, anaerobic
Protocol: as §1

[2] = Solubility in water (JP1 / JP2 fluids); assay type: physicochemical; conditions: thermodynamic from solid
Protocol: A 10 mmol/L solution of the test compound was prepared in DMSO and dispensed 100 μL of 10 mmol/L DMSO stock solutions into labeled glass tubes in duplicate, one for Japanese Pharmacopeia First Fluid (JP1) and second for Japanese Pharmacopeia Second Fluid (JP2). After evaporation of DMSO from each tube, 500 μL of JP1 and JP2 fluid were added in each tube, respectively. These tubes were sonicated for 1 minute and placed on shaker for 30 minutes with an interval of 30 seconds at every 5 minute. Tubes were placed in dark at room temperature for 1 hour and solution was filtered through membrane filter. The filtrate was diluted 2-fold and 10-fold. The resulting test solutions was analyzed and quantified against the standards using UPLC (standard preparation—10 mmol/L solution in DMSO is serially diluted with 50% aqueous acetonitrile solution to prepare 2 solutions; 100 μmol/L standard solution and 5 μmol/L standard solutions).

[3] = molecular target: Clostridium difficile DNA gyrase (Clostridioides difficile, UniProt Q18C89); experiment: DNA supercoiling inhibition assay; assay type: biochemical; conditions: supercoiling of relaxed pBR322 DNA, 60 minutes at 37° C.
Chain of Clostridium difficile DNA gyrase (Q18C90 entry or part of it): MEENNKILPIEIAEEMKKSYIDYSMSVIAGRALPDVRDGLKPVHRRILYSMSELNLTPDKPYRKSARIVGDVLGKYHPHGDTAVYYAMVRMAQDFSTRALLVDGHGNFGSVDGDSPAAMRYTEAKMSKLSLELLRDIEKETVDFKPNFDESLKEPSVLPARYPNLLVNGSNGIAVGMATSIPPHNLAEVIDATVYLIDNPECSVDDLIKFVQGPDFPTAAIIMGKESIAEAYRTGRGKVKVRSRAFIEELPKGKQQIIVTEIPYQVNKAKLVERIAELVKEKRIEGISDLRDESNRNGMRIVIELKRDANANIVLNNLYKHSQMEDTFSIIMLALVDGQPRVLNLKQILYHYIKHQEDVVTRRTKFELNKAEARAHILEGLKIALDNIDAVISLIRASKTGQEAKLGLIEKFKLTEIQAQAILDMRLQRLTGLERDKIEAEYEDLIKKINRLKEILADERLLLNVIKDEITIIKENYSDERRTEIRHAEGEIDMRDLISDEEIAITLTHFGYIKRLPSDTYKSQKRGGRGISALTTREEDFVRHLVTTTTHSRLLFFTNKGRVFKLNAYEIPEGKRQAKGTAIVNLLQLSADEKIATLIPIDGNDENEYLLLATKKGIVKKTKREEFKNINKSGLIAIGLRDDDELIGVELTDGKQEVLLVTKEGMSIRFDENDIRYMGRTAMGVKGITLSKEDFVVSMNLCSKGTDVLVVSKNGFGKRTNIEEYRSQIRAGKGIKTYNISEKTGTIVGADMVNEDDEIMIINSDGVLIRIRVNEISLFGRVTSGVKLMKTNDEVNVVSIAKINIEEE
Chain of Clostridium difficile DNA gyrase (Q18C89 entry or part of it): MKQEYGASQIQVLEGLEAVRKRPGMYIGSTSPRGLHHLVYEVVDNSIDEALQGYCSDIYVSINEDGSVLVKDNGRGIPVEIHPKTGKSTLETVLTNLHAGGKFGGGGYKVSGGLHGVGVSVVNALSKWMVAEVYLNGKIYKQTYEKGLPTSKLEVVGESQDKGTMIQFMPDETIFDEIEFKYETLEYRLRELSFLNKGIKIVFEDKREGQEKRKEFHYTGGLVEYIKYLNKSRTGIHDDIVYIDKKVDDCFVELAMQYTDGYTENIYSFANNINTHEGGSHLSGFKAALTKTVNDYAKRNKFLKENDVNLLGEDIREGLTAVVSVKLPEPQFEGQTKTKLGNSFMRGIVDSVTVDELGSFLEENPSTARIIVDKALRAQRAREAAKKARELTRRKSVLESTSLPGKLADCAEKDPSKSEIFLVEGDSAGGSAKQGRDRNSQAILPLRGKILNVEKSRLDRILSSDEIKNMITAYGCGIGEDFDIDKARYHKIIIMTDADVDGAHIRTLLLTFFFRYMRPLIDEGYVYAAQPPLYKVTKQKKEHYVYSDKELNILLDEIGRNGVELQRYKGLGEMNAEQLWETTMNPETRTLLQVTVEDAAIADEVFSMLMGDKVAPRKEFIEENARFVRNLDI
Protocol: DNA supercoiling assays (30 μL reaction) were performed in a buffer containing 15 mM Tris-HCl pH 7.5, 13% glycerol, 6 mM MgCl2, 0.1 mg/mL BSA, 70 mM KCl, 1 mM dithioerythritol, 400 ng of DNA substrate (relaxed pBR322 DNA) and different concentrations of test compounds and/or standards. The dilutions of test compounds and standards were prepared in 20% dimethylsulfoxide (DMSO) and added 3 μL/reaction. The reaction was started by adding 2 μL amounts of Clostridium difficile DNA gyrase into the reaction mixtures and reactions were allowed to proceed for 60 minutes at 37° C. A reaction was carried out by adding 3 μL of 20% DMSO instead of test compound as full reaction control, and another reaction was carried out by adding sterile water instead of the enzyme as no reaction control.
Reactions were stopped by the addition of 5 μL of 6×loading dye and were analyzed by electrophoresis through 1.0% agarose gels with 1×TAE running buffer. Gels were run at 60 V for 3 hours, stained with EtBr, and visualized by Gel Doc system (BioRad). Intensity of the supercoiled DNA bands was quantified, and the IC50 of Clostridium difficile DNA gyrase was calculated using Graph Pad Prism.

[4] = tested on: Clostridium difficile 2009155, a NAP1/027 strain; experiment: Hamster CDI model; assay type: in vivo; conditions: 0.3 mg/kg/day by oral route, 5 days
Protocol: The in vivo efficacy of test compounds were evaluated in a hamster CDI model caused by Clostridium difficile 2009155, a NAP1/027 strain. Syrine hamsters (6-8-weeks old) were primed with a single subcutaneous injection of clindamycin (30 mg/kg) 1-5 days prior to infection. Hamsters were infected by oral gavage with 1 ml of spore suspension ([…]) prepared in PBS. The drug was administered to the hamsters 6 hours post infection by oral or subcutaneous route at an interval of 24 hours for 5 days. The death and survival of the non-treated group and the drug-administered group were recorded once daily for 35 days.

[5] = tested on: Streptococcus pneumoniae ATCC 49619; experiment: Susceptibility of bacteria, broth microdilution MIC; assay type: cell-based; conditions: ATCC49619
Protocol: (§2) The antibacterial activity of the compounds of the present invention was tested by the broth microdilution method. The assay was carried out according to the CLSI guidelines for managing the procedures of susceptibility tests: “M7-A7 Methods for Dilution Antimicrobial Susceptibility Tests for Bacteria That Grow Aerobically; Approved Standard-Seventh Edition (2006)”. Test strains were grown on appropriate agar plates overnight. A broth containing the test compound diluted serially 2-fold and diluents were dispensed at 100 μL to each well of a 96-well microplate. As a growth control, a well with a broth not containing the test compound was also prepared. Colonies grown on the plates were suspended in saline, adjusted to 0.5 McFarland (OD625=0.08 to 0.10) using a colorimeter, and then diluted 10-fold with saline. The bacterial suspension was inoculated at 4 μL into each well of the microplate using a bacterial suspension inoculation apparatus. The inoculated microplate was incubated at 35° C. overnight (about 20 hours). The growth condition was observed by the naked eye, and the minimum concentration to inhibit bacterial proliferation was defined as a minimum inhibitory concentration (MIC).

E. faecium ATCC 29212 = experiment: as above; assay type: cell-based; conditions: Enterococcus faecium, ATCC29212
Protocol: as §2

[6] = tested on: Haemophilus influenzae ATCC 49247; experiment: as above; assay type: cell-based; conditions: ATCC49247
Protocol: as §2

[7] = Japanese Pharmacopeia First Fluid (JP1), pH 1.2, simulated gastric fluid, read-out: Solubility JP1
[8] = Japanese Pharmacopeia Second Fluid (JP2), pH 6.8, aqueous buffer, read-out: Solubility JP2

Work on `CCc1[nH]c(C(=O)N[C@@H]2CCN(c3nnc(C(O)CO)s3)C[C@@H]2OC)nc1Cl` (stereo in doubt) [Compound No. 8, 4-Chloro-N-[(3S,4R)-1-{5-[(1S)-1,2-dihydroxyethyl]-1,3,4-thiadiazol-2-yl}-3-methoxypiperidin-4-yl]-5-ethyl-1H-imidazole-2-carboxamide] yielded an MIC [1] of 0.125 µg/mL (≈ 0.29 µM), an MIC (S. aureus ATCC 29213) of 4 µg/mL (≈ 9.28 µM) and an MIC (P. acnes IHMA 103740) of 0.25 µg/mL (≈ 0.58 µM). The MIC (P. acnes IHMA 775486) was 0.25 µg/mL (≈ 0.58 µM), the MIC (P. acnes ATCC 6523) was 0.25 µg/mL (≈ 0.58 µM) and the MIC (P. acnes ATCC 6921) was 0.25 µg/mL (≈ 0.58 µM). For the same compound, the solubility at 30 min [2, 7] was 728 µg/mL (≈ 1690 µM) and the solubility at 30 min [2, 8] was 125 µg/mL (≈ 290 µM).
With `CCc1[nH]c(C(=O)N[C@@H]2CCN(c3nnc(C(O)CO)s3)C[C@@H]2OC)nc1Cl` (stereo in doubt) [Compound No. 9, 4-Chloro-N-[(3S,4R)-1-{5-[(1R)-1,2-dihydroxyethyl]-1,3,4-thiadiazol-2-yl}-3-methoxypiperidin-4-yl]-5-ethyl-1H-imidazole-2-carboxamide] the MIC [1] was 0.125 µg/mL (≈ 0.29 µM), the MIC (S. aureus ATCC 29213) was 4 µg/mL (≈ 9.28 µM) and the MIC (P. acnes IHMA 103740) was 0.125 µg/mL (≈ 0.29 µM). It also gave an MIC (P. acnes IHMA 775486) of 0.125 µg/mL (≈ 0.29 µM), an MIC (P. acnes ATCC 6523) of 0.125 µg/mL (≈ 0.29 µM) and an MIC (P. acnes ATCC 6921) of 0.125 µg/mL (≈ 0.29 µM). For the same compound, the solubility at 30 min [2, 7] was 862 µg/mL (≈ 2000 µM) and the solubility at 30 min [2, 8] was 220 µg/mL (≈ 511 µM).
For `CCc1[nH]c(C(=O)N[C@@H]2CCN(c3nnc(C(C)(O)CO)s3)C[C@@H]2OC)nc1Cl` (stereo in doubt) [Compound No. 11, 4-Chloro-N-[(3S,4R)-1-{5-[(2S)-1,2-dihydroxypropan-2-yl]-1,3,4-thiadiazol-2-yl}-3-methoxypiperidin-4-yl]-5-ethyl-1H-imidazole-2-carboxamide], the MIC [1] was 0.06 µg/mL (≈ 0.135 µM), the IC50 [3] was 27 nM and the “survival on day 35” value [4] was 100%. For the same compound, the MIC (S. aureus ATCC 29213) was 1 µg/mL (≈ 2.25 µM), the solubility at 30 min [2, 7] was 884 µg/mL (≈ 1990 µM) and the solubility at 30 min [2, 8] was 264 µg/mL (≈ 593 µM).
With `CCO[C@H]1CN(c2nnc(C(C)O)s2)CC[C@H]1NC(=O)c1nc(Cl)c(CC)[nH]1` (stereo partly drawn) [Compound No. 1, 4-Chloro-N-{(3S,4R)-3-ethoxy-1-[5-(1-hydroxyethyl)-1,3,4-thiadiazol-2-yl]piperidin-4-yl}-5-ethyl-1H-imidazole-2-carboxamide] the MIC [5] was 0.25 µg/mL (≈ 0.583 µM), the MIC (E. faecium ATCC 29212) was 0.25 µg/mL (≈ 0.583 µM) and the MIC [6] was 2 µg/mL (≈ 4.66 µM). The MIC [1] was 0.03 µg/mL (≈ 0.0699 µM), the IC50 [3] was 8.63 nM and the “survival on day 35” value [4] was 100%. The MIC (S. aureus ATCC 29213) was 0.5 µg/mL (≈ 1.17 µM).
Compound `CCc1[nH]c(C(=O)N[C@@H]2CCN(c3nnc(C(C)CO)s3)C[C@@H]2OC)nc1Cl` (stereo partly drawn) [Compound No. 6, 4-Chloro-5-ethyl-N-{(3S,4R)-1-[5-(1-hydroxypropan-2-yl)-1,3,4-thiadiazol-2-yl]-3-methoxypiperidin-4-yl}-1H-imidazole-2-carboxamide] has an MIC [1] of 0.125 µg/mL (≈ 0.291 µM), an MIC (S. aureus ATCC 29213) of 0.5 µg/mL (≈ 1.17 µM) and an MIC (P. acnes IHMA 103740) of 0.25 µg/mL (≈ 0.583 µM). The MIC (P. acnes IHMA 775486) was 0.25 µg/mL (≈ 0.583 µM), the MIC (P. acnes ATCC 6523) was 0.125 µg/mL (≈ 0.291 µM) and the MIC (P. acnes ATCC 6921) was 0.125 µg/mL (≈ 0.291 µM).
For `CCO[C@H]1CN(c2nnc(C(C)(C)O)s2)CC[C@H]1NC(=O)c1nc(Cl)c(CC)[nH]1` [Compound No. 7, 4-Chloro-N-{(3S,4R)-3-ethoxy-1-[5-(2-hydroxypropan-2-yl)-1,3,4-thiadiazol-2-yl]piperidin-4-yl}-5-ethyl-1H-imidazole-2-carboxamide], the MIC [1] was 0.125 µg/mL (≈ 0.282 µM), the MIC (S. aureus ATCC 29213) was 0.5 µg/mL (≈ 1.13 µM) and the solubility at 30 min [2, 8] was 611 µg/mL (≈ 1380 µM).

— patent US10399968B2, “Hydroxyalkyl thiadiazole derivatives” (Daiichi Sankyo Company, Limited, priority 2015, dated 2019)
